Experimental data as given in patent US20260262643A1, “HERBICIDAL BENZOXAZINES” (FMC CORPORATION, priority 2022, published 2026).

How the values were obtained:
green foxtail [1] = test: Test C postemergence; type: in vivo, Setaria viridis; conditions: 10 days
In short: (§1)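 Visual injury ratings on a 0–100 scale (100 = complete control) were made against untreated controls 10 days after treatment in the greenhouse. Compounds, formulated with surfactant in non-phytotoxic solvent, were sprayed on soil preemergence or onto one- to two-leaf plants 2–10 cm tall postemergence.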

wheat [2] = test: Test C postemergence; type: in vivo, Triticum aestivum; conditions: 10 days
In short: as §1

corn [3] = test: Test C postemergence; type: in vivo, Zea mays; conditions: 10 days
In short: as §1

pigweed, palmer [4] = test: Test C preemergence; type: in vivo, Amaranthus palmeri; conditions: 0 to 100 scale (0 no effect, 100 complete control)
In short: as §1

barnyardgrass [5] = test: Test C preemergence; type: in vivo, Echinochloa crusgalli; conditions: 0 to 100 scale (0 no effect, 100 complete control)
In short: as §1

ryegrass, Italian [6] = test: Test C preemergence; type: in vivo, Lolium multiflorum; conditions: 0 to 100 scale (0 no effect, 100 complete control)
In short: as §1

ducksalad = test: Test D flooded paddy test; type: in vivo, Heteranthera limosa; conditions: 250 g ai/ha, applied to paddy water, visual rating after 13 to 14 days, scale 0 to 100 (0 no effect, 100 complete control)
In short: (§2)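 Rating scale 0–100 (0 no effect, 100 complete control), visual, versus controls. Readout at 13–14 days after in-water application to 2-leaf plants in pots flooded 3 cm deep.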

blackgrass [7] = test: Test C preemergence; type: in vivo, Alopecurus myosuroides; conditions: 0 to 100 scale (0 no effect, 100 complete control)
In short: as §1

oat, wild [8] = test: Test C postemergence; type: in vivo, Avena fatua; conditions: 10 days
In short: as §1

pigweed, palmer [9] = test: Test C postemergence; type: in vivo, Amaranthus palmeri; conditions: 10 days
In short: as §1

blackgrass [10] = test: Test C postemergence; type: in vivo, Alopecurus myosuroides; conditions: 10 days
In short: as §1

galium = test: Test C postemergence; type: in vivo, Galium aparine; conditions: 125 g ai/ha, postemergence, 10 days; 0 to 100 scale, 0 no effect, 100 complete control
In short: as §1

sedge, umbrella = test: Test D flooded paddy test; type: in vivo, Cyperus difformis; conditions: 250 g ai/ha, applied to paddy water, visual rating after 13 to 14 days, scale 0 to 100 (0 no effect, 100 complete control)
In short: as §2

corn [11] = test: Test C preemergence; type: in vivo, Zea mays; conditions: 0 to 100 scale (0 no effect, 100 complete control)
In short: as §1

soybean [12] = test: Test C postemergence; type: in vivo, Glycine max; conditions: 10 days
In short: as §1

ragweed [13] = test: Test C preemergence; type: in vivo, Ambrosia artemisiifolia; conditions: 0 to 100 scale (0 no effect, 100 complete control)
In short: as §1

kochia [14] = test: Test C postemergence; type: in vivo, Bassia scoparia; conditions: 10 days
In short: as §1

kochia [15] = test: Test C preemergence; type: in vivo, Bassia scoparia; conditions: 0 to 100 scale (0 no effect, 100 complete control)
In short: as §1

horseweed = test: Test C postemergence; type: in vivo, Erigeron canadensis; conditions: 10 days
In short: as §1

soybean [16] = test: Test C preemergence; type: in vivo, Glycine max; conditions: 0 to 100 scale (0 no effect, 100 complete control)
In short: as §1

rice = test: Test D flooded paddy test; type: in vivo, Oryza sativa; conditions: 250 g ai/ha, applied to paddy water, visual rating after 13 to 14 days, scale 0 to 100 (0 no effect, 100 complete control)
In short: as §2

wheat [17] = test: Test C preemergence; type: in vivo, Triticum aestivum; conditions: 0 to 100 scale (0 no effect, 100 complete control)
In short: as §1

oat, wild [18] = test: Test C preemergence; type: in vivo, Avena fatua; conditions: 0 to 100 scale (0 no effect, 100 complete control)
In short: as §1

green foxtail [19] = test: Test C preemergence; type: in vivo, Setaria viridis; conditions: 0 to 100 scale (0 no effect, 100 complete control)
In short: as §1

barnyardgrass [20] = test: Test C postemergence; type: in vivo, Echinochloa crusgalli; conditions: 10 days
In short: as §1

ryegrass, Italian [21] = test: Test C postemergence; type: in vivo, Lolium multiflorum; conditions: 10 days
In short: as §1

barnyardgrass [22] = test: Test D flooded paddy test; type: in vivo, Echinochloa crus-galli; conditions: 250 g ai/ha, applied to paddy water, visual rating after 13 to 14 days, scale 0 to 100 (0 no effect, 100 complete control)
In short: as §2

ragweed [23] = test: Test C postemergence; type: in vivo, Ambrosia artemisiifolia; conditions: 10 days
In short: as §1

[24] = 125 g ai/ha, postemergence, 0 to 100 scale, 0 no effect, 100 complete control
[25] = Postemergence, 500 g ai/ha, visual 0 to 100 scale (0 no effect, 100 complete control)
[26] = Preemergence, 500 g ai/ha, visual rating after 10 days
[27] = Test C, preemergence, 125 g ai/ha

## CC(C)c1ncn(-c2ccc(SC(F)(F)F)c(C(=O)N3C[C@H](C)Oc4c(Cl)cccc43)c2)n1 [Compound 249]
Green foxtail [1]; [24]
  Plant response rating, Foxtail, Green: 30
Green foxtail [1]; [25]
  Plant response rating, Foxtail, Green: 30
Wheat [2]; [24]
  Plant response rating, Wheat: 10
Wheat [2]; [25]
  Plant response rating, Wheat: 10
Corn [3]; [24]
  Plant response rating, Corn: 0
Corn [3]; [25]
  Plant response rating, Corn: 10
pigweed, palmer [4]; [26]
  Plant response rating, Pigweed, Palmer: 30
pigweed, palmer [4]; [27]
  Pigweed, Palmer plant response rating: 30
Barnyardgrass [5]; [26]
  Plant response rating, Barnyardgrass: 20
Barnyardgrass [5]; [27]
  Barnyardgrass plant response rating: 20
ryegrass, Italian [6]; [26]
  Plant response rating, Ryegrass, Italian: 60
ryegrass, Italian [6]; [27]
  Ryegrass, Italian plant response rating: 40
ducksalad
  Plant response rating, Ducksalad (Flood): 0
Blackgrass [7]; [26]
  Plant response rating, Blackgrass: 60
Blackgrass [7]; [27]
  Blackgrass plant response rating: 20
oat, wild [8]; [24]
  Plant response rating, Oat, Wild: 0
oat, wild [8]; [25]
  Plant response rating, Oat, Wild: 0
pigweed, palmer [9]; [24]
  Plant response rating, Pigweed, Palmer: 40
pigweed, palmer [9]; [25]
  Plant response rating, Pigweed, Palmer: 70
Blackgrass [10]; [24]
  Plant response rating, Blackgrass: 0
Blackgrass [10]; [25]
  Plant response rating, Blackgrass: 0
galium
  Plant response rating, Galium: 90
sedge, umbrella
  Plant response rating, Sedge, Umbrella (Flood): 0
Corn [11]; [26]
  Plant response rating, Corn: 0
Corn [11]; [27]
  Corn plant response rating: 0
Soybean [12]; [24]
  Plant response rating, Soybean: 100
Soybean [12]; [25]
  Plant response rating, Soybean: 100
Ragweed [13]; [26]
  Plant response rating, Ragweed: 0
Ragweed [13]; [27]
  Ragweed plant response rating: 0
Kochia [14]; [24]
  Plant response rating, Kochia: 50
Kochia [14]; [25]
  Plant response rating, Kochia: 80
Kochia [15]; [26]
  Plant response rating, Kochia: 0
Kochia [15]; [27]
  Kochia plant response rating: 0
horseweed; [24]
  Plant response rating, Horseweed: 0
horseweed; [25]
  Plant response rating, Horseweed: 0
Soybean [16]; [26]
  Plant response rating, Soybean: 20
Soybean [16]; [27]
  Soybean plant response rating: 0
rice
  Plant response rating, Rice (Flood): 0
Wheat [17]; [26]
  Plant response rating, Wheat: 0
Wheat [17]; [27]
  Wheat plant response rating: 0
oat, wild [18]; [26]
  Plant response rating, Oat, Wild: 0
oat, wild [18]; [27]
  Oat, Wild plant response rating: 0
Green foxtail [19]; [26]
  Plant response rating, Foxtail, Green: 90
Green foxtail [19]; [27]
  Foxtail, Green plant response rating: 90
Barnyardgrass [20]; [24]
  Plant response rating, Barnyardgrass: 10
Barnyardgrass [20]; [25]
  Plant response rating, Barnyardgrass: 10
ryegrass, Italian [21]; [24]
  Plant response rating, Ryegrass, Italian: 0
ryegrass, Italian [21]; [25]
  Plant response rating, Ryegrass, Italian: 0
Barnyardgrass [22]
  Plant response rating, Barnyardgrass (Flood): 0
Ragweed [23]; [24]
  Plant response rating, Ragweed: 0
Ragweed [23]; [25]
  Plant response rating, Ragweed: 0
